The text below walks through data of patent US20130090318A1, “ONCE-A-MONTH METHOD OF CONTRACEPTION” (LABORATOIRE HRA-PHARMA, priority 2010, published 2013).

The structures appear in SMILES notation.

The test system of this experiment is women. Description: Effect of one intake of levonorgestrel within different stages of the menstrual cycle on women pregnancies. The class given is in vivo. Particulars: levonorgestrel 1.5 mg single oral tablet, 1,117 women. As for the experimental part: 1,117 women (aged 24.9+/−6.5 years) received levonorgestrel (1.5 mg) in form of a single oral tablet during different stages of their menstrual cycle.
The reference (day 0) is the ovulation. The fertile period extends from five days before the ovulation to one day after the ovulation.

Take `C#C[C@]1(O)CC[C@H]2[C@@H]3CCC4=CC(=O)CC[C@@H]4[C@H]3CC[C@@]21CC` [levonorgestrel, D-(−)-ethyl-13β ethynyl-17α hydroxy-17 gonene-4 one-3]: the “% pregnancies (failures)” value stood at 0% (menstrual cycle stage <−5 day (day 0 = ovulation)); 44% (menstrual cycle stage >+1 day (day 0 = ovulation)); 56% (menstrual cycle stage between −5 and +1 day (fertile period)).
